Experimental data taken from US12116424B2, “Compounds and compositions for modulating Listeria virulence” (priority 2021, dated 2024).
Read-outs that look alike come from different tables or passages of the source. Where a SMILES comes first, the peptide text is derived from it. Bridges are numbered along the chain shown (N, C = ends). [ ]: non-standard residue; d: D form.

Tests used:
L. monocytogenes AgrC [1] = molecular target: T1, L. monocytogenes AgrC (Listeria monocytogenes serovar 1/2a, UniProt Q8YAR5); assay: Fluorescence (agr-GFP) reporter agonism assay, ΔagrD reporter strain; format: cell-based; set-up: Emax: dose or concentration left out as unconfirmed
Procedure, shortened: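 L. monocytogenes EGD-e strains carrying agr promoter-GFP plasmid: ΔagrD for agonism (normalized to 1 μM AIP), wild type for antagonism (normalized to DMSO). Peptides in 1% DMSO with diluted overnight culture in BHI, 24 h at 37 °C shaking; GFP fluorescence corrected for background and OD600, four-parameter dose-response fit.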

L. monocytogenes AgrC [2] = molecular target: T1, L. monocytogenes AgrC; assay: Fluorescence (agr-GFP) reporter antagonism assay, wild-type EGD-e reporter strain; format: cell-based
From the text: Construction of Listeria agr Reporter Strains. A gene block was designed and purchased from Integrated DNA Technologies to contain an EagI recognition site, the PII promoter of the agr system, the 3′ UTR of hly, super folder GFP, and a SaII recognition site. The gene block was digested with EagI and SaII, cloned into an EagI/SaII-cut pAM401 plasmid resulting in the plasmid pAM401-KW1, and then transformed into E. coli XL1-Blue competent cells. The insertion into pAM401 was confirmed using Kapa polymerase and primers DAP337 and DAP338, and additional confirmation via commercial sequencing. Purified plasmid was transformed into the conjugative E. coli S17 strain, which was used to conjugate to EGD-e and EGD-e ΔagrD to generate the agr-GFP reporter strains EGD-e:pAM401-KW1 and EGD-e ΔagrD:pAM401-KW1. Conjugation was verified using primers DAP337 and DAP338.
Fluorescence reporter assay protocol. For QS (agr) reporter assays, peptide stock solutions in DMSO (1 mM) were serially diluted in DMSO, and 2 μL of solution was added to each well in a black 96-well plate (polystyrene microtiter plate, Costar). Agonism assays utilized the ΔagrD reporter strain, with 2 μL of 100 μM AIP (final concentration 1 μM) as a positive control and 2 μL of DMSO as a negative control. Antagonism assays utilized the EGD-e reporter strain, with 2 μL of DMSO as a positive control. In both assays, wells containing only BHI media served as negative controls for normalization. An overnight culture of bacteria was diluted 1:50 in fresh BHI, then 198 μL were transferred to each well (excluding the media control wells). Plates were then incubated at 37° C. for 24 hours with shaking at 200 rpm. Fluorescence of GFP (excitation at 500 nm, emission at 540 nm) and OD600 of each well was measured using BioTek Synergy 2 plate reader. Measurements were processed by subtracting background fluorescence (BHI media), correcting by OD600, and the normalizing using the 1 μM AIP or the DMSO control for the agonism and antagonism assays, respectively. Non-linear regression curves were fitted to the data sets in GraphPad Prism 7 by using variable slope (four-parameter) dose-response analysis to obtain potency, efficacy, and statistical information about the activity of tested peptides. Each peptide was tested with three technical replicates and three biological replicates. All data derived from fluorescent reporter strains are represented with data points signifying the mean and error bars signifying the standard deviation from all replicates.
Preparation and Validation of Listeria agr Reporter Strains. […] However, adding exogenous AIP to the ΔagrD reporter results in an increase of fluorescence, indicating agr activity has been restored.

L. monocytogenes EGD-e = format: cell-based, Listeria monocytogenes
Description: Biofilm assay protocol. Biofilms assays were adapted from previous reports and protocols.^51-52 Overnight cultures of L. monocytogenes EGD-e and ΔagrD were grown in BHI, then diluted 1:100 in LB. For single-point assays, 2 μL of agonists or antagonists at an appropriate concentration were added to wells in a clear 96-well microtiter plates. For dose-response assays, a stock solution of the select peptide were serially diluted in DMSO, then 2 μL of each concentration were transferred to the appropriate wells. Then, 198 μL of bacteria were added to their respective wells, using ΔagrD for agonist wells and EGD-e for antagonist wells. In each plate, additional vehicle controls for baseline biofilm formation of EGD-e and ΔagrD strains (2 μL of DMSO) were included, as well as a media control (200 μL of LB). Plates were incubated at room temperature for 24 hours statically, at which point plates were inverted over a glass waste container and gently shook to remove planktonic bacteria. The wells were gently washed with 200 μL of PBS twice, inverting again over the waste container to remove liquid. Then, 200 μL of 0.1% crystal violet solution (in water) were added to each well and incubated for 30 minutes. The wells were then washed with 200 μL of PBS three more times and left to air dry for 15 minutes. Remaining crystal violet was solubilized by the addition of 100 μL of 95% ethanol in water solution, pipetting up and down to mix, incubated for 10 minutes, then absorbance was read at 595 nm. Absorbance data was processed by normalizing to the EGD-e vehicle control (100%) and the LB media control (0%). Non-linear regression curves were fitted to the data sets in GraphPad Prism 7 by using variable slope (four-parameter) dose-response analysis to obtain potency, efficacy, and statistical information about the activity of tested peptides. Each well was tested with four technical replicates and three biological replicates. […]

[3] = tested on: L. monocytogenes EGD-e ΔagrD; assay: Crystal violet biofilm assay, ΔagrD strain (agonists); format: cell-based, Listeria monocytogenes
Description: Biofilm assay protocol. Biofilms assays were adapted from previous reports and protocols.^51-52 Overnight cultures of L. monocytogenes EGD-e and ΔagrD were grown in BHI, then diluted 1:100 in LB. For single-point assays, 2 μL of agonists or antagonists at an appropriate concentration were added to wells in a clear 96-well microtiter plates. For dose-response assays, a stock solution of the select peptide were serially diluted in DMSO, then 2 μL of each concentration were transferred to the appropriate wells. Then, 198 μL of bacteria were added to their respective wells, using ΔagrD for agonist wells and EGD-e for antagonist wells. In each plate, additional vehicle controls for baseline biofilm formation of EGD-e and ΔagrD strains (2 μL of DMSO) were included, as well as a media control (200 μL of LB). Plates were incubated at room temperature for 24 hours statically, at which point plates were inverted over a glass waste container and gently shook to remove planktonic bacteria. The wells were gently washed with 200 μL of PBS twice, inverting again over the waste container to remove liquid. Then, 200 μL of 0.1% crystal violet solution (in water) were added to each well and incubated for 30 minutes. The wells were then washed with 200 μL of PBS three more times and left to air dry for 15 minutes. Remaining crystal violet was solubilized by the addition of 100 μL of 95% ethanol in water solution, pipetting up and down to mix, incubated for 10 minutes, then absorbance was read at 595 nm. Absorbance data was processed by normalizing to the EGD-e vehicle control (100%) and the LB media control (0%). Non-linear regression curves were fitted to the data sets in GraphPad Prism 7 by using variable slope (four-parameter) dose-response analysis to obtain potency, efficacy, and statistical information about the activity of tested peptides. Each well was tested with four technical replicates and three biological replicates. All data derived from crystal violet biofilm assays are represented with data points signifying the mean and error bars signifying the standard deviation from all replicates.

[4] = read-out: Max Activation Observed

T1 sequence (Q8YAR5 entry or part of it): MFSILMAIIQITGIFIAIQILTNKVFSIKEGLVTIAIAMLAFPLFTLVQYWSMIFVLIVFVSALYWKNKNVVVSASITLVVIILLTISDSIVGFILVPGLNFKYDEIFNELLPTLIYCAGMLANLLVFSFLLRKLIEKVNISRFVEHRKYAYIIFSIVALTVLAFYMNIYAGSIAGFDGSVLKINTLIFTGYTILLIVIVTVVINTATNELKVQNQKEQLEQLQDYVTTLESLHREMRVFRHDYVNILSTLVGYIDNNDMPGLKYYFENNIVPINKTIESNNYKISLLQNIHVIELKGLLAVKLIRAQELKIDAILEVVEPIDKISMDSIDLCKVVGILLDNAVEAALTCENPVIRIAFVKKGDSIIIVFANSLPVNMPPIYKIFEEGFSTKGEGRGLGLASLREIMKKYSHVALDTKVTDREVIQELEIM

SMILES | Emax (L. monocytogenes AgrC [1]; [4]) [%] | antagonism activity (in words) (L. monocytogenes AgrC [2]) | biofilm of wild-type (WT) strain (FIG. 9B) (L. monocytogenes EGD-e) | wild-type biofilm formation reduced by (L. monocytogenes EGD-e; 100 μM) [%] | IC50 (L. monocytogenes EGD-e; dose-response, wild-type biofilm, read-out: IC50 (biofilm formation)) [nM] | Emax (L. monocytogenes AgrC [1]; read-out: Max Activation) [%] | Emax at 1 µM (L. monocytogenes AgrC [1]; read-out: Max Activation) [%] | biofilm formation of ΔagrD strain (FIG. 9A) [3] | biofilm production compared to vehicle controls ([3]; 10 μM, ΔagrD bacteria)
CSCC[C@H]1NC(=O)[C@H](Cc2ccccc2)NC(=O)[C@H](NC(=O)[C@@H](N)CCCCN)CSC(=O)[C@H](C(C)C)NC(=O)[C@H](Cc2ccccc2)NC1=O [A1K/C2dC/M4dM, K-(dC-F-dM-F-V)] (H-K[dC]F[dM]FV; thioester 2-C) | 8.1 | inhibiting wild-type activity to levels similar to basal ΔagrD activity | reduces biofilm | 90 | 1860 |  |  |  | 
CSCC[C@@H]1NC(=O)[C@H](Cc2ccccc2)NC(=O)[C@@H](NC(=O)[C@H](C)N)CSC(=O)[C@H](C(C)C)NC(=O)[C@H](Cc2ccccc2)NC1=O [AIP, A-(C-F-M-F-V), reference compound] (H-ACFMFV; thioester 2-C; N-terminus assumed) | 114 |  |  |  |  | 114 | 114 | increase biofilm formation | doubled
